Experimental data taken from BindingDB's records for patent US20250082630 (AstraZeneca, 2025).

What was measured:
[1] = target: Poly [ADP-ribose] polymerase 1 (Homo sapiens, UniProt P09874); assay: PARP Fluorescence Anisotropy Binding Assay
Experimental: (§1) Recombinant full length 6HIS tagged PARP1 protein was diluted to 6 nM with 50 mM Tris pH 8, 0.001% Triton X100, 10 mM MgCl2, 150 mM NaCl and incubated for four hours with an equivalent volume of 2 nM fluorescent probe diluted with 50 mM Tris pH 8, 0.001% Triton X100, 10 mM MgCl2, 150 mM NaCl. The final DMSO concentration of the probe was kept below 1% (v/v).Recombinant full length PARP2 protein was diluted to 6 nM with 50 mM Tris pH 8, 0.001% Triton X100, 10 mM MgCl2, 150 mM NaCl and incubated for four hours with an equivalent volume of 2 nM fluorescent probe diluted with 50 mM Tris pH 8, 0.001% Triton X100, 10 mM MgCl2, 150 mM NaCl. The final DMSO concentration of the probe was kept below 1% (v/v).Recombinant full length PARP3 protein was diluted to 100 nM with 50 mM Tris pH 8, 0.001% Triton X100, 10 mM MgCl2, 150 mM NaCl and incubated for four hours with an equivalent volume of 6 nM fluorescent probe diluted with 50 mM Tris pH 8, 0.001% Triton X100, 10 mM MgCl2, 150 mM NaCl.

[2] = target: Poly [ADP-ribose] polymerase 2 (Homo sapiens, UniProt Q9UGN5); assay: PARP Fluorescence Anisotropy Binding Assay
Poly [ADP-ribose] polymerase 2, sequence (Q9UGN5 whole entry): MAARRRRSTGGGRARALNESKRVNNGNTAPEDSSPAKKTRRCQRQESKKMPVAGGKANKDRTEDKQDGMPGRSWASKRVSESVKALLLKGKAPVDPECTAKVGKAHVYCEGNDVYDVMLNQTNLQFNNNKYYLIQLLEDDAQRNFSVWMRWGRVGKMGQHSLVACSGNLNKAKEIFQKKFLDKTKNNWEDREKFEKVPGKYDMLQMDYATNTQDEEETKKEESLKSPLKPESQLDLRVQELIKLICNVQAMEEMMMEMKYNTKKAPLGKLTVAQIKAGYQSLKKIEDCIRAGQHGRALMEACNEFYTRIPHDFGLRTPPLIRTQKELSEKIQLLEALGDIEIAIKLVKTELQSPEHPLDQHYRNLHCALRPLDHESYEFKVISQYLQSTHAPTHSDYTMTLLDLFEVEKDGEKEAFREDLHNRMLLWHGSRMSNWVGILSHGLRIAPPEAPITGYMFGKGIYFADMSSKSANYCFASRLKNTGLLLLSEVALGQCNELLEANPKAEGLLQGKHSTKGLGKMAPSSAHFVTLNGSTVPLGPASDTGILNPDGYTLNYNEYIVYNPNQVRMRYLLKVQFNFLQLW
Experimental: as §1

Poly [ADP-ribose] polymerase 1, sequence (P09874 whole entry): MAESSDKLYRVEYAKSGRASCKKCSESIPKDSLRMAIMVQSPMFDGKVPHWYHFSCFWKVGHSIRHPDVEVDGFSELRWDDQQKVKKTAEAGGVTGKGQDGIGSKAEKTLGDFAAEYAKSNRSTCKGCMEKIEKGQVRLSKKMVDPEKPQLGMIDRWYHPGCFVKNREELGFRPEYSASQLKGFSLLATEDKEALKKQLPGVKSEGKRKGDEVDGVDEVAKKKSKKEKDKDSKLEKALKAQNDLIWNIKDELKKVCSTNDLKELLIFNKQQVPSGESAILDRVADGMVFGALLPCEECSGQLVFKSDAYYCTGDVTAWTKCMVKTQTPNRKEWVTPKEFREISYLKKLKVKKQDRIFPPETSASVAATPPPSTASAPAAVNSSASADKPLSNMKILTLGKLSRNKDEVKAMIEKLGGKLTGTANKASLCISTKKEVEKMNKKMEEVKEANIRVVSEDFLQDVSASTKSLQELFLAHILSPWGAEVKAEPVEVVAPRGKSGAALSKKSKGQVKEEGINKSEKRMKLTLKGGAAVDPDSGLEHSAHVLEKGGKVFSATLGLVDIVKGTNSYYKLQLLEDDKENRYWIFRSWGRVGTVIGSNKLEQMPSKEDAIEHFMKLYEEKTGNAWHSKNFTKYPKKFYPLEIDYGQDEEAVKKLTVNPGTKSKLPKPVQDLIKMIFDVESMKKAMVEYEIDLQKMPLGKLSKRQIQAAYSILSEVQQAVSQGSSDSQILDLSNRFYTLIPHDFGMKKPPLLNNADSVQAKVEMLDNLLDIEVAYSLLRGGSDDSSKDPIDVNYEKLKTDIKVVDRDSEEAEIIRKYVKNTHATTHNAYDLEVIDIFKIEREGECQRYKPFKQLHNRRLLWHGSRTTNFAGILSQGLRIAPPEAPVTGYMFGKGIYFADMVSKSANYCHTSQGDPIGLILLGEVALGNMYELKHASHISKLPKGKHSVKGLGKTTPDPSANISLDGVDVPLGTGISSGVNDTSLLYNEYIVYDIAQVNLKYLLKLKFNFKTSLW

IC50 [1]: 8 nM
IC50 [2]: > 100000 nM
Structure (SMILES): CNC(=O)c1ccc(N2CCN(Cc3ccc4nc(OC)c(=O)[nH]c4c3C)CC2)c(F)n1 [US20250082630, Example 58]
